Laboratory results: patent publication US12570988B2, “Aptamers that bind thiamine analogs and derivatives” (MeiraGTx Gene Regulation Limited, priority 2020, dated 2026)

Columns and labels:
riboswitch 15D10 [1] = experiment: Luciferase reporter with 15D10 riboswitch (Luci-15D10) in HEK 293 cells; format: cell-based, human; details: Homo sapiens, HEK293, 24 h, 50 μM; HEK 293 cells; Table 3; read-out: Fold increase in riboswitch 15D10-regulated luciferase expression, HEK
Method in brief: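 Cells transfected with riboswitch-luciferase plasmid; 4 h later medium replaced with TPP or thiamine analogs (fursultiamine, prosultiamine, bisbentiamine, beclotiamine, sulbutiamine) as inducers.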

riboswitch 15D10 [2] = experiment: Luciferase reporter with 15D10 riboswitch (Luci-15D10) in AML12 cells; format: cell-based, mouse; details: Mus musculus, AML12, 24 h, 50 μM; AML12 cells; Table 3; read-out: Fold increase in riboswitch 15D10-regulated luciferase expression, AML

SMILES	fold induction at 50 µM (riboswitch 15D10 [1])	fold induction at 50 µM (riboswitch 15D10 [2])
C/C(=C(\CCO)SC(=O)c1ccccc1Oc1ccccc1Br)N(C=O)Cc1cnc(C)nc1N [Compound M137, (Z)—S-(2-(N-((4-amino-2-methylpyrimidin-5-yl)methyl)formamido)-5-hydroxypent-2-en-3-yl) 2-(2-bromophenoxy)benzothioate]	140	288
C/C(=C(\CCO)SC(=O)c1ccccc1Oc1c(Cl)cccc1Cl)N(C=O)Cc1cnc(C)nc1N [Compound M138, (Z)—S-(2-(N-((4-amino-2-methylpyrimidin-5-yl)methyl)formamido)-5-hydroxypent-2-en-3-yl) 2-(2,6-dichlorophenoxy)benzothioate]	228	195
C/C(=C(\CCO)SC(=O)c1ccccc1Oc1cccc(C(C)(C)C)c1)N(C=O)Cc1cnc(C)nc1N [Compound M139, (Z)—S-(2-(N-((4-amino-2-methylpyrimidin-5-yl)methyl)formamido)-5-hydroxypent-2-en-3-yl) 2-(3-(tert-butyl)phenoxy)benzothioate]	37	188
C/C(=C(\CCO)SC(=O)c1ccccc1Oc1ccc2ccccc2c1)N(C=O)Cc1cnc(C)nc1N [Compound M140, (Z)—S-(2-(N-((4-amino-2-methylpyrimidin-5-yl)methyl)formamido)-5-hydroxypent-2-en-3-yl) 2-(naphthalen-2-yloxy)benzothioate]	175	192
C/C(=C(\CCO)SC(=O)c1ccccc1Oc1cccc2cccnc12)N(C=O)Cc1cnc(C)nc1N [Compound M141, (Z)—S-(2-(N-((4-amino-2-methylpyrimidin-5-yl)methyl)formamido)-5-hydroxypent-2-en-3-yl) 2-(quinolin-8-yloxy)benzothioate]	1.61	3.46
C/C(=C(\CCO)SC(=O)c1c(F)cccc1Oc1ccccc1Cl)N(C=O)Cc1cnc(C)nc1N [Compound M142, (Z)—S-(2-(N-((4-amino-2-methylpyrimidin-5-yl)methyl)formamido)-5-hydroxypent-2-en-3-yl) 2-(2-chlorophenoxy)-6-fluorobenzothioate]	85.3	184
CCOc1ccc(C(=O)S/C(CCO)=C(/C)N(C=O)Cc2cnc(C)nc2N)c(Oc2cccc(F)c2)c1 [Compound M143, (Z)—S-(2-(N-((4-amino-2-methylpyrimidin-5-yl)methyl)formamido)-5-hydroxypent-2-en-3-yl) 4-ethoxy-2-(3-fluorophenoxy)benzothioate]	138	300
C/C(=C(\CCO)SC(=O)c1ccc(C(C)(C)C)cc1Oc1ccccc1)N(C=O)Cc1cnc(C)nc1N [Compound M145, (Z)—S-(2-(N-((4-amino-2-methylpyrimidin-5-yl)methyl)formamido)-5-hydroxypent-2-en-3-yl) 4-(tert-butyl)-2-phenoxybenzothioate]	156	60.6
C/C(=C(\CCO)SC(=O)c1ccccc1Oc1ccc(C(F)(F)F)nc1)N(C=O)Cc1cnc(C)nc1N [Compound M146, (Z)—S-(2-(N-((4-amino-2-methylpyrimidin-5-yl)methyl)formamido)-5-hydroxypent-2-en-3-yl) 2-((6-(trifluoromethyl)pyridin-3-yl)oxy)benzothioate]	53.3	96.6
C/C(=C(\CCO)SC(=O)c1ccccc1Oc1ccc2c(c1)OCCO2)N(C=O)Cc1cnc(C)nc1N [Compound M147, (Z)—S-(2-(N-((4-amino-2-methylpyrimidin-5-yl)methyl)formamido)-5-hydroxypent-2-en-3-yl) 2-((2,3-dihydrobenzo[b][1,4]dioxin-6-yl)oxy)benzothioate]	193	267
C/C(=C(\CCO)SC(=O)c1cccc2c1oc1ccccc12)N(C=O)Cc1cnc(C)nc1N [Compound M148, (Z)—S-(2-(N-((4-amino-2-methylpyrimidin-5-yl)methyl)formamido)-5-hydroxypent-2-en-3-yl) dibenzo[b,d]furan-4-carbothioate]	153	288
C/C(=C(\CCO)SC(=O)c1ccc(Oc2ccccc2)cc1Cl)N(C=O)Cc1cnc(C)nc1N [Compound M149, (Z)—S-(2-(N-((4-amino-2-methylpyrimidin-5-yl)methyl)formamido)-5-hydroxypent-2-en-3-yl) 2-chloro-4-phenoxybenzothioate]	176	383
C/C(=C(\CCO)SC(=O)c1c(C)cc(Oc2ccccc2)cc1F)N(C=O)Cc1cnc(C)nc1N [Compound M150, (Z)—S-(2-(N-((4-amino-2-methylpyrimidin-5-yl)methyl)formamido)-5-hydroxypent-2-en-3-yl) 2-fluoro-6-methyl-4-phenoxybenzothioate]	12.3	12
C/C(=C(\CCO)SC(=O)c1ccc(Oc2cccc(Cl)c2)cc1C)N(C=O)Cc1cnc(C)nc1N [Compound M151, (Z)—S-(2-(N-((4-amino-2-methylpyrimidin-5-yl)methyl)formamido)-5-hydroxypent-2-en-3-yl) 4-(3-chlorophenoxy)-2-methylbenzothioate]	20.5	231
C/C(=C(\CCO)SC(=O)c1ccc(Oc2ccccc2)cc1Oc1ccccc1)N(C=O)Cc1cnc(C)nc1N [Compound M152, (Z)—S-(2-(N-((4-amino-2-methylpyrimidin-5-yl)methyl)formamido)-5-hydroxypent-2-en-3-yl) 2,4-diphenoxybenzothioate]	68.9	36.6
C/C(=C(\CCO)SC(=O)c1ccccc1Sc1ccccc1)N(C=O)Cc1cnc(C)nc1N [Compound M153, (Z)—S-(2-(N-((4-amino-2-methylpyrimidin-5-yl)methyl)formamido)-5-hydroxypent-2-en-3-yl) 2-(phenylthio)benzothioate]	442	535
C/C(=C(\CCO)SC(=O)c1ccccc1Oc1ccc(N2CCCC2=O)cc1)N(C=O)Cc1cnc(C)nc1N [Compound M155, (Z)—S-(2-(N-((4-amino-2-methylpyrimidin-5-yl)methyl)formamido)-5-hydroxypent-2-en-3-yl) 2-(4-(2-oxopyrrolidin-1-yl)phenoxy)benzothioate]	7.71	117
C/C(=C(\CCO)SC(=O)c1ccc(C(C)(C)C)cc1Oc1cccc(C(C)(C)C)c1)N(C=O)Cc1cnc(C)nc1N [Compound M156, (Z)—S-(2-(N-((4-amino-2-methylpyrimidin-5-yl)methyl)formamido)-5-hydroxypent-2-en-3-yl) 4-(tert-butyl)-2-(3-(tert-butyl)phenoxy)benzothioate]	0.06	10.1
C/C(=C(\CCO)SC(=O)c1ccccc1Oc1cccc2ccccc12)N(C=O)Cc1cnc(C)nc1N [Compound M157, (Z)—S-(2-(N-((4-amino-2-methylpyrimidin-5-yl)methyl)formamido)-5-hydroxypent-2-en-3-yl) 2-(naphthalen-1-yloxy)benzothioate]	118	316
